From ChEMBL document CHEMBL3297661, “1-Substituted-5-[(3,5-dinitrobenzyl)sulfanyl]-1H-tetrazoles and their isosteric analogs: A new class of selective antitubercular agents active against drug-susceptible and multidrug-resistant mycobacteria” (Eur J Med Chem, 2014)
Converted amounts (≈) assume the structure as drawn.

Columns and labels:
[1] = Cytotoxicity against human HuH7 cells assessed as reduction in cell viability after 48 hrs by MTT assay; assay type: cell-based; conditions: Huh-7, 48 h
[2] = Cytotoxicity against human HeLa cells assessed as cell viability at 30 uM after 48 hrs by MTT assay; assay type: cell-based; conditions: read-out: Activity
[3] = test system: Mycobacterium tuberculosis; assay: Antimycobacterial activity against Mycobacterium tuberculosis CNCTC My 331/88 after 14 days by micromethod; assay type: functional; conditions: CNCTC My 331/88, 336 h
[4] = test system: Mycobacterium kansasii; assay: Antimycobacterial activity against Mycobacterium kansasii CNCTC My 235/80 after 21 days by micromethod; assay type: functional; conditions: CNCTC My 235/80, 504 h
[5] = test system: Mycobacterium tuberculosis; assay: Antimycobacterial activity against Mycobacterium tuberculosis CNCTC My 331/88 after 21 days by micromethod; assay type: functional; conditions: CNCTC My 331/88, 504 h
[6] = test system: HepG2; assay: Cytotoxicity against human HepG2 cells assessed as reduction in cell viability after 48 hrs by MTT assay; assay type: cell-based; conditions: HepG2, 48 h
[7] = test system: Mycobacterium avium; assay: Antimycobacterial activity against Mycobacterium avium CNCTC My 330/88 after 14 days by micromethod; assay type: functional; conditions: CNCTC My 330/88, 336 h
[8] = Cytotoxicity against MDCK2 cells assessed as reduction in cell viability after 48 hrs by MTT assay; assay type: cell-based; conditions: Canis lupus familiaris, MDCK-II
[9] = test system: Mycobacterium kansasii; assay: Antimycobacterial activity against Mycobacterium kansasii 6509/96 after 21 days by micromethod; assay type: functional; conditions: 6509/96, 504 h
[10] = test system: Mycobacterium kansasii; assay: Antimycobacterial activity against Mycobacterium kansasii CNCTC My 235/80 after 7 days by micromethod; assay type: functional; conditions: CNCTC My 235/80, 168 h
[11] = test system: Mycobacterium avium; assay: Antimycobacterial activity against Mycobacterium avium CNCTC My 330/88 after 21 days by micromethod; assay type: functional; conditions: CNCTC My 330/88, 504 h
[12] = test system: Mycobacterium kansasii; assay: Antimycobacterial activity against Mycobacterium kansasii 6509/96 after 7 days by micromethod; assay type: functional; conditions: 6509/96, 168 h
[13] = Cytotoxicity against human HepG2 cells assessed as cell viability at 30 uM after 48 hrs by MTT assay; assay type: cell-based; conditions: read-out: Activity
[14] = test system: HeLa; assay: Cytotoxicity against human HeLa cells assessed as reduction in cell viability after 48 hrs by MTT assay; assay type: cell-based
[15] = test system: Mycobacterium kansasii; assay: Antimycobacterial activity against Mycobacterium kansasii 6509/96 after 14 days by micromethod; assay type: functional; conditions: 6509/96, 336 h
[16] = test system: Mycobacterium kansasii; assay: Antimycobacterial activity against Mycobacterium kansasii CNCTC My 235/80 after 14 days by micromethod; assay type: functional; conditions: CNCTC My 235/80, 336 h
[17] = Cytotoxicity against MDCK2 cells assessed as cell viability at 30 uM after 48 hrs by MTT assay; assay type: cell-based, Canis lupus familiaris, MDCK-II; conditions: dog, read-out: Activity
[18] = Cytotoxicity against human HuH7 cells assessed as cell viability at 30 uM after 48 hrs by MTT assay; assay type: cell-based, Huh-7; conditions: read-out: Activity

| SMILES | IC50 [1] | viability at 48 h, 30 µM [2] | MIC [3] | MIC [4] | MIC [5] | IC50 [6] | MIC [7] | IC50 [8] | MIC [9] | MIC [10] | MIC [11] | MIC [12] | viability at 48 h, 30 µM [13] | IC50 [14] | MIC [15] | MIC [16] | viability at 48 h, 30 µM [17] | viability at 48 h, 30 µM [18] |
| --- | --- | --- | --- | --- | --- | --- | --- | --- | --- | --- | --- | --- | --- | --- | --- | --- | --- | --- |
| O=[N+]([O-])c1ccc(CSc2nnnn2C2CCCCC2)c([N+](=O)[O-])c1 | > 30 µM | 61% | 8 µM (≈ 2.92 µg/mL) | 16 µM (≈ 5.83 µg/mL) | 16 µM (≈ 5.83 µg/mL) | 16 µM | 16 µM (≈ 5.83 µg/mL) | 17 µM | 62 µM (≈ 22.6 µg/mL) | 4 µM (≈ 1.46 µg/mL) | 32 µM (≈ 11.7 µg/mL) | 16 µM (≈ 5.83 µg/mL) | 47% | > 30 µM | 62 µM (≈ 22.6 µg/mL) | 8 µM (≈ 2.92 µg/mL) | 28% | 97% |
| COc1ccc(-n2nnnc2[Se]Cc2cc([N+](=O)[O-])cc([N+](=O)[O-])c2)cc1 | > 30 µM | 78% | 1 µM (≈ 0.435 µg/mL) | 2 µM (≈ 0.871 µg/mL) | 1 µM (≈ 0.435 µg/mL) | 19 µM | 32 µM (≈ 13.9 µg/mL) | < 7.5 µM | 8 µM (≈ 3.48 µg/mL) | 1 µM (≈ 0.435 µg/mL) | 32 µM (≈ 13.9 µg/mL) | 2 µM (≈ 0.871 µg/mL) | 17% | > 30 µM | 4 µM (≈ 1.74 µg/mL) | 2 µM (≈ 0.871 µg/mL) | 9% | 72% |
| O=[N+]([O-])c1cc(CS(=O)(=O)c2nnnn2C2CCCCC2)cc([N+](=O)[O-])c1 | 28 µM | 22% | 2 µM (≈ 0.793 µg/mL) | 16 µM (≈ 6.34 µg/mL) | 4 µM (≈ 1.59 µg/mL) | 9 µM | 32 µM (≈ 12.7 µg/mL) | < 7.5 µM | 16 µM (≈ 6.34 µg/mL) | 8 µM (≈ 3.17 µg/mL) | 62 µM (≈ 24.6 µg/mL) | 8 µM (≈ 3.17 µg/mL) | 10% | 21 µM | 16 µM (≈ 6.34 µg/mL) | 16 µM (≈ 6.34 µg/mL) | 18% | 43% |
| COc1ccc(-n2nnnc2SCc2cc([N+](=O)[O-])cc([N+](=O)[O-])c2)cc1 | > 30 µM | 39% | 2 µM (≈ 0.777 µg/mL) | 4 µM (≈ 1.55 µg/mL) | 4 µM (≈ 1.55 µg/mL) | > 30 µM | 16 µM (≈ 6.21 µg/mL) | > 30 µM | 2 µM (≈ 0.777 µg/mL) | 1 µM (≈ 0.388 µg/mL) | 32 µM (≈ 12.4 µg/mL) | 1 µM (≈ 0.388 µg/mL) | 90% |  | 1 µM (≈ 0.388 µg/mL) | 4 µM (≈ 1.55 µg/mL) | 123% | 86% |
| O=[N+]([O-])c1cc(C[Se]c2nnnn2-c2ccccc2)cc([N+](=O)[O-])c1 |  |  | 8 µM (≈ 3.24 µg/mL) | 16 µM (≈ 6.48 µg/mL) | 8 µM (≈ 3.24 µg/mL) |  | 32 µM (≈ 13 µg/mL) |  | 32 µM (≈ 13 µg/mL) | 8 µM (≈ 3.24 µg/mL) | 32 µM (≈ 13 µg/mL) | 16 µM (≈ 6.48 µg/mL) |  |  | 16 µM (≈ 6.48 µg/mL) | 8 µM (≈ 3.24 µg/mL) |  |  |
| O=[N+]([O-])c1cc(COc2nnnn2-c2ccc(Cl)cc2)cc([N+](=O)[O-])c1 |  |  | 2 µM (≈ 0.753 µg/mL) | 32 µM (≈ 12.1 µg/mL) | 4 µM (≈ 1.51 µg/mL) |  | 32 µM (≈ 12.1 µg/mL) |  | 32 µM (≈ 12.1 µg/mL) | 8 µM (≈ 3.01 µg/mL) | 62 µM (≈ 23.4 µg/mL) | 8 µM (≈ 3.01 µg/mL) |  |  | 16 µM (≈ 6.03 µg/mL) | 16 µM (≈ 6.03 µg/mL) |  |  |
| O=[N+]([O-])c1ccc(CSc2nnnn2-c2ccc([N+](=O)[O-])cc2)cc1 |  |  | 250 µM (≈ 89.6 µg/mL) | 250 µM (≈ 89.6 µg/mL) | 250 µM (≈ 89.6 µg/mL) |  | 250 µM (≈ 89.6 µg/mL) |  | 250 µM (≈ 89.6 µg/mL) | 250 µM (≈ 89.6 µg/mL) | 250 µM (≈ 89.6 µg/mL) | 250 µM (≈ 89.6 µg/mL) |  |  | 250 µM (≈ 89.6 µg/mL) | 250 µM (≈ 89.6 µg/mL) |  |  |
| Nc1cc(N)cc(CSc2nnnn2-c2ccccc2)c1 |  |  | 250 µM (≈ 74.6 µg/mL) | 1000 µM (≈ 298 µg/mL) | 500 µM (≈ 149 µg/mL) |  | 1000 µM (≈ 298 µg/mL) |  | 1000 µM (≈ 298 µg/mL) | 250 µM (≈ 74.6 µg/mL) | 1000 µM (≈ 298 µg/mL) | 250 µM (≈ 74.6 µg/mL) |  |  | 1000 µM (≈ 298 µg/mL) | 1000 µM (≈ 298 µg/mL) |  |  |
| Cn1nnnc1SCc1cc([N+](=O)[O-])cc([N+](=O)[O-])c1 |  |  | 4 µM (≈ 1.19 µg/mL) | 32 µM (≈ 9.48 µg/mL) | 8 µM (≈ 2.37 µg/mL) |  | 500 µM (≈ 148 µg/mL) |  | 32 µM (≈ 9.48 µg/mL) | 4 µM (≈ 1.19 µg/mL) | 1000 µM (≈ 296 µg/mL) | 16 µM (≈ 4.74 µg/mL) |  |  | 32 µM (≈ 9.48 µg/mL) | 16 µM (≈ 4.74 µg/mL) |  |  |
| O=[N+]([O-])c1cc(COc2nnnn2-c2ccc(Br)cc2)cc([N+](=O)[O-])c1 |  |  | 2 µM (≈ 0.842 µg/mL) | 16 µM (≈ 6.74 µg/mL) | 4 µM (≈ 1.68 µg/mL) |  | 125 µM (≈ 52.6 µg/mL) |  | 16 µM (≈ 6.74 µg/mL) | 8 µM (≈ 3.37 µg/mL) | 125 µM (≈ 52.6 µg/mL) | 4 µM (≈ 1.68 µg/mL) |  |  | 16 µM (≈ 6.74 µg/mL) | 16 µM (≈ 6.74 µg/mL) |  |  |
